The values that follow come from patent publication US9981909B2 (Janssen Pharmaceutica NV, priority 2008, dated 2018).

The structures appear in SMILES notation. Where two headings read alike, the source gives them in different places.

For one test, the target named is rat 5-HT7 receptor (Rattus norvegicus (Rat), UniProt P32305). Nature of the test: r5-HT7 binding assay, competitive radioligand binding with [3H]5-CT. The gist of the method:
(§1)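 Membranes from HEK-293 cells recombinantly expressing rat 5-HT7 were used for competitive radioligand binding with [3H]5-CT, with radioactivity read-out and Ki values derived. In the functional cAMP immunoassay, stably transfected HEK-293 cells were pre-incubated with compound for 10 minutes, challenged with 100 nM 5-CT for 20 minutes, then lysed.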

A further test concerns the target human SERT (Homo sapiens (Human), UniProt P31645). Nature of the test: human SERT binding assay with [3H]-citalopram on HEK-293 membranes. Conditions: read-out: hSERT binding Ki.
The target in test [1] is T1, h5HT2C (Homo sapiens (Human), UniProt P28335). As to the kind of experiment: h5HT2C binding.
Another test concerns the target r5-HT7 receptor (Rattus norvegicus (Rat), UniProt P32305). As to the kind of experiment: HitHunter cAMP assay, antagonist testing against 100 nM 5-CT. In kind it is cell-based. Conditions: antagonist testing, 100 nM 5-CT challenge, HEK-293 r5-HT7; read-out: R5HT7 cAMP pKb (converted). In a few lines:
as §1
In general terms: Changes in cAMP serve as a functional read-out for many G protein-coupled receptors.

In another test the target is h5-HT6 (Homo sapiens (Human), UniProt P50406). As to the kind of experiment: h5-HT6 binding assay with [3H]LSD on HEK-293 membranes. Conditions: h5-HT6, [3H]LSD, HEK-293 membranes; read-out: h5HT6 binding Ki. The procedure:
Receptor binding was performed using membrane fractions prepared from the HEK-293 cell line recombinantly expressing rat 5-HT7 receptors (NCBI accession NM_022938). Compound affinity for the rat 5-HT7 receptor subtype was evaluated by competitive radioligand binding assays using 5-carboxamido[^3H]tryptamine ([^3H]5-CT) (Amersham Biosciences, cat. 90000403) detection. HitHunter™ cAMP assays are in-vitro based competitive immunoassays. The assay was performed on the HEK-293 cell line stably transfected with r5-HT7 receptor. Cells were pre-incubated with test compounds for 10 minutes. For antagonist testing, the cells were then challenged with 100 nM 5-CT for 20 minutes. Cells were then lysed and cAMP measured according to manufacturers protocol (Amersham, cat. NET791250UC) or [^3H]mesulergine (Amersham, cat. TRK1041). The assay was performed on membranes prepared from HEK-293 cells stably transfected with h5-HT6. Following centrifugation, membranes were resuspended and incubated for 60 min at room temperature with 1.7 nM [^3H]LSD in the presence of increasing concentration of test compounds. Nonspecific binding was defined in the presence of 10 μM clozapine (Tocris, cat. TRK1068). Homogenized HEK-293 membranes expressing the human SERT were incubated in 50 mM Tris-HCl (pH 7.5), 120 mM NaCl, 5 mM KCl with [^3H]-citalopram (3 nM) with or without test compounds. Nonspecific binding was determined in the presence of 10 μM fluoxetine. Radioactivity readouts and Ki values were performed as previously described for r5-HT7. […] Compounds were assayed in their free form or as salts, as indicated in the Examples section above.

In test [2] the target is T2, h5HT2A (Homo sapiens (Human), UniProt P28223). Nature of the test: h5HT2A binding.
Test [3] has as its target T3, h5HT2B (Homo sapiens (Human), UniProt P41595). Nature of the test: h5HT2B binding.
In test [4] the target is T1, h5HT2C. As to the kind of experiment: h5HT2C binding. This is another data set of the same source.
Test [5] addresses T2, h5HT2A. As to the kind of experiment: h5HT2A binding. This is another data set of the same source.
The target in test [6] is T3, h5HT2B. As to the kind of experiment: h5HT2B binding. The source holds these as a separate data set.
The mark [7] stands for this setting: rat 5-HT7 receptor, HEK-293 membranes.

rat 5-HT7 receptor, sequence (P32305 1-435): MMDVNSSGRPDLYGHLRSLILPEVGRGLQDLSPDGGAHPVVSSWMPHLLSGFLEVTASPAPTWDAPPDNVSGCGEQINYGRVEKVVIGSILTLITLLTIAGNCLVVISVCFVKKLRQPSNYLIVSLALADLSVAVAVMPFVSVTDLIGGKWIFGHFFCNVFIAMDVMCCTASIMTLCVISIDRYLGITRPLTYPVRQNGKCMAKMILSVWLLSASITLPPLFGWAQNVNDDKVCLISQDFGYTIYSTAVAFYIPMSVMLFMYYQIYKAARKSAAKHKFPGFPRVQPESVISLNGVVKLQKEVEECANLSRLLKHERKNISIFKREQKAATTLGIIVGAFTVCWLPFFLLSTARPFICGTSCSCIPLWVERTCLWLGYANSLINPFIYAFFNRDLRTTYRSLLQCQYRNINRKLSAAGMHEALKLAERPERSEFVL
T3 sequence (P41595 whole entry): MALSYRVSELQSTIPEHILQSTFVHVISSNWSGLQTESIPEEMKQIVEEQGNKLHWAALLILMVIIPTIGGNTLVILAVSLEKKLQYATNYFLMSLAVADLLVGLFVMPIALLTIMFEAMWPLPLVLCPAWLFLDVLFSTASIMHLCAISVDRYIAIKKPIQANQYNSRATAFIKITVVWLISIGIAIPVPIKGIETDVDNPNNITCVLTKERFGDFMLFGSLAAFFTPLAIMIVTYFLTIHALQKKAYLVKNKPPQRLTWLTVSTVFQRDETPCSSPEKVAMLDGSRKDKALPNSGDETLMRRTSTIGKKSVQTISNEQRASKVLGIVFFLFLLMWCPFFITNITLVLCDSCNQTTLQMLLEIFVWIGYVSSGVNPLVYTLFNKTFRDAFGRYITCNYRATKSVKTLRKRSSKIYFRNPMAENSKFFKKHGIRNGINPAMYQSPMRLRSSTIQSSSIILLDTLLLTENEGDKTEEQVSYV
T1 sequence (P28335 33-458): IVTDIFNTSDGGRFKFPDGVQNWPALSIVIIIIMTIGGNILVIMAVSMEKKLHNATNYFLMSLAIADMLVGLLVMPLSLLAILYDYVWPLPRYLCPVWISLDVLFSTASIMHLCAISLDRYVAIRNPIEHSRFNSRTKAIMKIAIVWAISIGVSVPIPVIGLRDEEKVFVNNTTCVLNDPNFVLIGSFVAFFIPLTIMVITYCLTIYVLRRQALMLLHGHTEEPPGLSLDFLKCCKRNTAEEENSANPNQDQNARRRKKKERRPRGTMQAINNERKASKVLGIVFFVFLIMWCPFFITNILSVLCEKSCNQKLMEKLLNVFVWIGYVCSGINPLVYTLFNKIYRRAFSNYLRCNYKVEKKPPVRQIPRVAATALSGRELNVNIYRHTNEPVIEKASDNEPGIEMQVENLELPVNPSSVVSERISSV
T2 sequence (P28223 whole entry): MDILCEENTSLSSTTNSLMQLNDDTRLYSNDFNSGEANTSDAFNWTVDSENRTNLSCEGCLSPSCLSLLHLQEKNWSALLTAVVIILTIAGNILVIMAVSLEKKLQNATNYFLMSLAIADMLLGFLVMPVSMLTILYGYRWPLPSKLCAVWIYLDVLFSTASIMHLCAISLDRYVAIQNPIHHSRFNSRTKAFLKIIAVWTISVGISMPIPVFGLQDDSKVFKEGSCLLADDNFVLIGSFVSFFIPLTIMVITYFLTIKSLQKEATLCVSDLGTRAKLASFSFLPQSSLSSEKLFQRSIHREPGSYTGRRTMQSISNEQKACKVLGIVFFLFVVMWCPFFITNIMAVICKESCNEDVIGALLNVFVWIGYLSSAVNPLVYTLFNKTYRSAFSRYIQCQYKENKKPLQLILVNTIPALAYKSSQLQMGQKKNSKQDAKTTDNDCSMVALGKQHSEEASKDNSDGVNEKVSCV
human SERT, sequence (P31645 whole entry): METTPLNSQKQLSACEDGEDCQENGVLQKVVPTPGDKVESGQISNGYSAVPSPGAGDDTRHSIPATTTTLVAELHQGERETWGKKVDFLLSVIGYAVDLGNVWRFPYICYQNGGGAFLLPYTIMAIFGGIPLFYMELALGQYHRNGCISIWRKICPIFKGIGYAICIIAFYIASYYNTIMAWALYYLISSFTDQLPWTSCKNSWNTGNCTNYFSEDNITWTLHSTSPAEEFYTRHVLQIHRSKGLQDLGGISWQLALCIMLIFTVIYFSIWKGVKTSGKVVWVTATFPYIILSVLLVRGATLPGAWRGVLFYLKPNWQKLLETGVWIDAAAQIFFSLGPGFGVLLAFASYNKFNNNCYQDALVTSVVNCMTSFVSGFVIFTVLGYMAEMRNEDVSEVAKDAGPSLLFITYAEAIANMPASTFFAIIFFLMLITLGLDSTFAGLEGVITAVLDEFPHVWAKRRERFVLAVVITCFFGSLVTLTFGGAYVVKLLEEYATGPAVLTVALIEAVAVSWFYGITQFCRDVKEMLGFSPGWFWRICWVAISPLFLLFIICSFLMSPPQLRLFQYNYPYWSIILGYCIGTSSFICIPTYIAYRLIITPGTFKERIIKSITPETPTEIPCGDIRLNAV
h5-HT6, sequence (P50406 whole entry): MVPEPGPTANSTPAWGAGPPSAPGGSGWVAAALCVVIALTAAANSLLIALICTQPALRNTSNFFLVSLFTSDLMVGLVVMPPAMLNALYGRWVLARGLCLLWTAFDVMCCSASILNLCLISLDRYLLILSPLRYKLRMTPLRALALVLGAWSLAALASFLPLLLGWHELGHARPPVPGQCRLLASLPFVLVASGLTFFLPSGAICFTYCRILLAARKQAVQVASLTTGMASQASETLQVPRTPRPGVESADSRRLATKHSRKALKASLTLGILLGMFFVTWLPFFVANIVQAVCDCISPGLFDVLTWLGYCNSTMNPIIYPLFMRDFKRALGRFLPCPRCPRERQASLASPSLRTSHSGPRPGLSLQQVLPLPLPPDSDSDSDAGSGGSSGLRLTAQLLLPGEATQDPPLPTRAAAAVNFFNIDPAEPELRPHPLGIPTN
r5-HT7 receptor, sequence (P32305 1-435): as the sequence (P32305 1-435) above

For `C[C@@H]1NC[C@H]1Oc1cc(Br)ccc1OCc1cccc(F)c1` (racemic) [Example 219, (±)-trans-3-[5-Bromo-2-(3-fluoro-benzyloxy)-phenoxy]-2-methyl-azetidine], the inhibition constant (Ki) on rat 5-HT7 receptor (rat 5-HT7, HEK-293 membranes) came to 9 nM; on human SERT it was 68 nM; at h5HT2C [1], 31 nM.

Turning to `Clc1cccc(COc2ccc(Br)cc2OC2CNC2)c1` [Example 2, 3-[5-Bromo-2-(3-chloro-benzyloxy)-phenoxy]-azetidine], the inhibition constant (Ki) on rat 5-HT7 receptor (setting [7]) is 12 nM; at h5-HT6, 47 nM; on human SERT, 1 nM; on h5HT2A [2], 42 nM; at h5HT2B [3], 74 nM; on h5HT2C [4], 760 nM. In addition, the Kb on r5-HT7 receptor is 31.6 nM.

For `Brc1ccc(OCCc2ccccc2)c(OC2CNC2)c1` [Example 195, 3-(5-Bromo-2-phenethyloxy-phenoxy)-azetidine], the Ki is 2 nM on rat 5-HT7 receptor (setting [7]); 27 nM at h5-HT6; 60 nM at human SERT; 10 nM on h5HT2A [2]; 4 nM on h5HT2B [3]; 42 nM on h5HT2C [4].

For `CC1(Oc2cc(Br)ccc2OCCc2ccccc2)CNC1` [Example 215, 3-(5-Bromo-2-phenethyloxy-phenoxy)-3-methyl-azetidine], the Ki on rat 5-HT7 receptor (rat 5-HT7, HEK-293 membranes) stood at 11 nM; at human SERT it was 44 nM; on h5HT2A [5], 6 nM; at h5HT2B [6], 17 nM; on h5HT2C [1] it was 26 nM.

For `Clc1ccc(OC2CN(c3ccccc3)C2)c(OC2CNC2)c1` [Example 222, 3-[5-Chloro-2-(1-phenyl-azetidin-3-ol)-phenoxy]-azetidine], the Ki on rat 5-HT7 receptor (rat 5-HT7, HEK-293 membranes) turned out to be 18 nM; on human SERT, 2110 nM; at h5HT2C [1], 1010 nM.

For `Cc1ccc(Oc2cc(Cl)ccc2O[C@H]2CCNC2)cc1` [Example 266, (S)-3-(4-Chloro-2-p-tolyloxy-phenoxy)-pyrrolidine], the Ki at rat 5-HT7 receptor (rat 5-HT7, HEK-293 membranes) is > 10000 nM; on h5HT2A [5], 150 nM; at h5HT2B [6] it was 130 nM; on h5HT2C [1], 230 nM.

Consider `Cc1ccc(Oc2cc(Cl)ccc2O[C@@H]2CCNC2)cc1` [Example 267, (R)-3-(4-Chloro-2-p-tolyloxy-phenoxy)-pyrrolidine], for which the Ki at rat 5-HT7 receptor (rat 5-HT7, HEK-293 membranes) was found to be 2300 nM; on h5HT2A [5], 120 nM; on h5HT2B [6], 65 nM; on h5HT2C [1], 210 nM.

`Cc1ccc(Oc2cc(Cl)ccc2O[C@@H]2CCN(C)C2)cc1` [Example 268, (R)-3-(4-Chloro-2-p-tolyloxy-phenoxy)-1-methyl-pyrrolidine]: the inhibitory constant (Ki) on rat 5-HT7 receptor (rat 5-HT7, HEK-293 membranes) is 820 nM; on h5HT2A [5] it was 150 nM; on h5HT2B [6], 130 nM; on h5HT2C [1], 380 nM.

For `Fc1ccc(Oc2cc(Cl)ccc2O[C@H]2CCNC2)cc1` [Example 269, (S)-3-[4-Chloro-2-(4-fluoro-phenoxy)-phenoxy]-pyrrolidine], the Ki at rat 5-HT7 receptor (rat 5-HT7, HEK-293 membranes) was > 10000 nM; at h5HT2A [5] it was 190 nM; on h5HT2B [6] it was 500 nM; on h5HT2C [1], 400 nM.

With `Fc1ccc(Oc2cc(Cl)ccc2O[C@@H]2CCNC2)cc1` [Example 270, (R)-3-[4-Chloro-2-(4-fluoro-phenoxy)-phenoxy]-pyrrolidine], the Ki was 1000 nM at rat 5-HT7 receptor (rat 5-HT7, HEK-293 membranes); 120 nM at h5HT2A [5]; 75 nM at h5HT2B [6]; 240 nM on h5HT2C [1].

Consider `CN1CC[C@@H](Oc2ccc(Cl)cc2Oc2ccc(F)cc2)C1` [Example 271, (R)-3-[4-Chloro-2-(4-fluoro-phenoxy)-phenoxy]-1-methyl-pyrrolidine], for which the Ki at rat 5-HT7 receptor (rat 5-HT7, HEK-293 membranes) is 660 nM; at h5HT2A [5] it was 78 nM; on h5HT2B [6], 98 nM; at h5HT2C [1] it was 350 nM.

For the compound `Cc1ccccc1Oc1cc(Cl)ccc1O[C@H]1CCNC1` [Example 272, (S)-3-(4-Chloro-2-o-tolyloxy-phenoxy)-pyrrolidine], the Ki on rat 5-HT7 receptor (rat 5-HT7, HEK-293 membranes) was > 10000 nM; at h5HT2A [5] it was 220 nM; on h5HT2B [6], 310 nM; on h5HT2C [1], 330 nM.

Regarding `Cc1cccc(Oc2cc(Cl)ccc2O[C@H]2CCNC2)c1` [Example 273, (S)-3-(4-Chloro-2-m-tolyloxy-phenoxy)-pyrrolidine], the Ki was > 5000 nM on rat 5-HT7 receptor (rat 5-HT7, HEK-293 membranes); 82 nM on h5HT2A [5]; 160 nM at h5HT2B [6]; 150 nM at h5HT2C [1].

Regarding `Cc1cc(Oc2cc(Cl)ccc2O[C@H]2CCNC2)ccc1F` [Example 274, (S)-3-[4-Chloro-2-(4-fluoro-3-methyl-phenoxy)-phenoxy]-pyrrolidine], the Ki was determined as 8600 nM on rat 5-HT7 receptor (rat 5-HT7, HEK-293 membranes); 100 nM on h5HT2A [5]; 170 nM on h5HT2B [6]; 230 nM on h5HT2C [1].

For `Clc1ccc(Oc2cc(Cl)ccc2O[C@H]2CCNC2)cc1` [Example 275, (S)-3-[4-Chloro-2-(4-chloro-phenoxy)-phenoxy]-pyrrolidine], the Ki on rat 5-HT7 receptor (rat 5-HT7, HEK-293 membranes) was > 10000 nM; on h5HT2A [5], 530 nM; at h5HT2B [6], 910 nM; at h5HT2C [1] it was 220 nM.

As for `Clc1cccc(Oc2cc(Cl)ccc2O[C@H]2CCNC2)c1` [Example 276, (S)-3-[4-Chloro-2-(3-chloro-phenoxy)-phenoxy]-pyrrolidine], the inhibition constant (Ki) is > 10000 nM on rat 5-HT7 receptor (rat 5-HT7, HEK-293 membranes); 84 nM at h5HT2A [5]; 190 nM at h5HT2B [6]; 120 nM on h5HT2C [1].

With `Clc1ccc(O[C@H]2CCNC2)c(Oc2ccc(Br)cc2)c1` [Example 277, (S)-3-[2-(4-Bromo-phenoxy)-4-chloro-phenoxy]-pyrrolidine], the Ki at rat 5-HT7 receptor (rat 5-HT7, HEK-293 membranes) worked out at 5500 nM; on h5HT2A [5], 410 nM; on h5HT2B [6] it was 270 nM; at h5HT2C [1], 120 nM.

Take `CC(C)c1ccc(Oc2cc(Cl)ccc2O[C@H]2CCNC2)cc1` [Example 278, (S)-3-[4-Chloro-2-(4-isopropyl-phenoxy)-phenoxy]-pyrrolidine]: the Ki at rat 5-HT7 receptor (rat 5-HT7, HEK-293 membranes) was > 10000 nM; on h5HT2A [5] it was 1400 nM; at h5HT2B [6], 1300 nM; on h5HT2C [1] it was 330 nM.

In general, Ki refers to the dissociation constant of the complex between target and ligand, obtained from inhibition or displacement.
